# Data: US9518994B2, “Method for diagnosing and monitoring schizophrenia and tauopathies” (Ramot at Tel Aviv University, priority 2010, dated 2016)
# B1: recombinant ADNP: recombinant activity-dependent neuroprotective protein (protein, UniProt Q9H2P0 1-1102, looked up)
# Activity-dependent …: MFQLPVNNLGSLRKARKTVKKILSDIGLEYCKEHIEDFKQFEPNDFYLKNTTWEDVGLWDPSLTKNQDYRTKPFCCSACPFSSKFFSAYKSHFRNVHSEDFENRILLNCPYCTFNADKKTLETHIKIFHAPNASAPSSSLSTFKDKNKNDGLKPKQADSVEQAVYYCKKCTYRDPLYEIVRKHIYREHFQHVAAPYIAKAGEKSLNGAVPLGSNAREESSIHCKRCLFMPKSYEALVQHVIEDHERIGYQVTAMIGHTNVVVPRSKPLMLIAPKPQDKKSMGLPPRIGSLASGNVRSLPSQQMVNRLSIPKPNLNSTGVNMMSSVHLQQNNYGVKSVGQGYSVGQSMRLGLGGNAPVSIPQQSQSVKQLLPSGNGRSYGLGSEQRSQAPARYSLQSANASSLSSGQLKSPSLSQSQASRVLGQSSSKPAAAATGPPPGNTSSTQKWKICTICNELFPENVYSVHFEKEHKAEKVPAVANYIMKIHNFTSKCLYCNRYLPTDTLLNHMLIHGLSCPYCRSTFNDVEKMAAHMRMVHIDEEMGPKTDSTLSFDLTLQQGSHTNIHLLVTTYNLRDAPAESVAYHAQNNPPVPPKPQPKVQEKADIPVKSSPQAAVPYKKDVGKTLCPLCFSILKGPISDALAHHLRERHQVIQTVHPVEKKLTYKCIHCLGVYTSNMTASTITLHLVHCRGVGKTQNGQDKTNAPSRLNQSPSLAPVKRTYEQMEFPLLKKRKLDDDSDSPSFFEEKPEEPVVLALDPKGHEDDSYEARKSFLTKYFNKQPYPTRREIEKLAASLWLWKSDIASHFSNKRKKCVRDCEKYKPGVLLGFNMKELNKVKHEMDFDAEWLFENHDEKDSRVNASKTADKKLNLGKEDDSSSDSFENLEEESNESGSPFDPVFEVEPKISNDNPEEHVLKVIPEDASESEEKLDQKEDGSKYETIHLTEEPTKLMHNASDSEVDQDDVVEWKDGASPSESGPGSQQVSDFEDNTCEMKPGTWSDESSQSEDARSSKPAAKKKATMQGDREQLKWKNSSYGKVEGFWSKDQSQWKNASENDERLSNPQIEWQNSTIDSEDGEQFDNMTDGVAEPMHGSLAGVKLSSQQA
# Key:
# anti-ADNP (NAP) antibody = conditions: incubation of antibody with excess NAP peptide; cited from earlier work
# [1] = system: known cell surface receptors; assay: Screening NAP on receptor panels; format: binding
# Protocol: Fluorescent NAP was found inside cells, in the vicinity of microtubules when it was incubated with cells at 4° C. and at low pH (conditions that exclude receptor-mediated endocytocis) (I. Divinski et al. J Biol Chem 279, 28531-28538 (2004)). Furthermore, NAP activity is independent of its chirality (D. E. Brenneman et al. J Pharmacol Exp Ther 309, 1190-1197 (2004)) and NAP shares sequence similarities with protein sequences that have membrane permeability properties (I. Divinski et al. J Biol Chem 279, 28531-28538 (2004)).
# ADNP+/- mice = conditions: cited from earlier work
# tau transgenic mice = conditions: daily intranasal treatment over several months; cited from earlier work
# [2] = system: primary neuronal cell cultures; conditions: cited from earlier work
# phosphorylated tau = conditions: 12-month-old mice, intranasal ~0.07 mg/kg/day for 3 months; cited from earlier work
# [3] = system: gestational day 8.0 mouse embryos; conditions: cited from earlier work
# [4] = system: schizophrenia-related cognitive impairment; conditions: 5 mg once daily and 15 mg twice daily vs placebo, 56 patients; cited from earlier work
# amnestic MCI = conditions: 15 mg twice daily, intranasal, vs placebo; cited from earlier work
# [5] = system: Cortical neurons co-cultured with PEE astrocytes; conditions: cited from earlier work
# cancer cell division = conditions: unlike paclitaxel; cited from earlier work
# astrocytes or neurons = conditions: cited from earlier work
# [6] = system: cerebellar granule neurons; conditions: cited from earlier work
# STOP+/- mice = conditions: daily nasal application; cited from earlier work
# P19 cells = assay: P19 cell neuro-differentiation, Q-PCR of differentiation markers; format: cell-based, mouse; conditions: eight days differentiation, 1 μM RA; FIG. 2
# Protocol: Mouse Embryonic teratocarcinoma cells were obtained from the American Type Culture Collection (ATCC, Bethesda, Md.); an initial control batch was a kind gift of Dr. Roi Atlas and Professor Irith Ginzburg, the Weizmann Institute of Science, Rehovot, Israel. P19 cells were grown in minimal essential medium (alpha-MEM) containing 5% fetal calf serum, 100 U/ml penicillin and 0.1 mg/ml streptomycin (Biological Industries, Beit Haemek, Israel) in a 5% CO2 incubator at 37° C. […]
# Samples with same amount of total RNA were used to synthesize single-strand cDNA with SuperScript […] RNase H Reverse Transcriptase (Invitrogen, Carlsbad, Calif., USA) and a random hexamers adaptor primer according to the manufacturer's instructions. […] ADNP and ADNP2 expression levels in Schizophrenia were determined using specific primers for human ADNP and ADNP2, and normalized to TATA box binding protein. […] RNA from non-differentiated and differentiated P19 cells was isolated and the expression of tubulin β3 and glial fibrillary acidic protein (GFAP) was determined to confirm neuronal differentiation. ADNP and ADNP2 expression levels in P19 cells were determined using specific primers for mouse ADNP and ADNP2. […] The efficiencies of all primers used were calculated as a precursory step using standard curves, according to the equation: E (efficiency)=10^(−1/slope)−1×100 and were near 100% for all primers. […]
# ADNP [7] = assay: Transgene shutoff by doxycycline in rTg(tau(P301L))4510 mice, western blots; format: in vivo, mouse; conditions: treated with doxycycline; untreated ratio is 3; FIG. 3D
# Protocol: Nuclear ADNP expression was assessed using mouse monoclonal antibody directed against ADNP (1:300 dilution; BD Bioscience) at 150 KD, actin was used as a control. […] C. […] Tau expression was measured in the cytoplasmic fraction; ADNP was measured in nuclear fractions. D. Western blots showing expression level of ADNP in transgenic and non-transgenic mice after doxycycline treatment.
# β-tubulin = conditions: NAP affinity columns; cited from earlier work
# ADNP [8] = conditions: 120 min 75% xenon and 25% oxygen vs 75% nitrogen and 25% oxygen; RT-PCR, western blot, immunohistochemistry; cited from earlier work
# cell cultures = conditions: cited from earlier work
molecule,measurement,setting,value
"CC[C@H](C)[C@H](NC(=O)[C@H](CO)NC(=O)[C@@H](NC(=O)[C@@H]1CCCN1C(=O)[C@H](C)NC(=O)[C@@H](N)CC(N)=O)C(C)C)C(=O)N1CCC[C@H]1C(=O)N[C@@H](CCC(N)=O)C(=O)O [NAP, Asn-Ala-Pro-Val-Ser-Ile-Pro-Gln]",reduction of fluorescence staining,anti-ADNP (NAP) antibody,> 80%
same,binding to known cell surface receptors,[1],did not reveal any significant binding
same,cognitive deficits,ADNP+/- mice; 0.5 μg/mouse/day,partially ameliorated
same,tau hyperphosphorylation,ADNP+/- mice; 0.5 μg/mouse/day,reduced
same,amount of active GSK-3β,ADNP+/- mice; NAP treatment,reduced
same,short-term memory,tau transgenic mice,improving
same,"tau phosphorylation and ""NFTs""",tau transgenic mice,reduced
same,neurite outgrowth,[2],induced neurite outgrowth
same,decrease in phosphorylated tau at Ser202/Thr205 and Thr231 residues,phosphorylated tau,70%
same,percentage of embryos that had begun to close their neural folds,[3]; co-incubation with ethanol and NAP,significantly increased
same,alcohol-induced serotonergic loss during brain development,"[3]; in vivo, caudal raphe",protected
same,"UCSD Performance-based Skills Assessment (UPSA) test, secondary endpoint",[4],statistically significant positive treatment effect
same,tests that measured visual learning and working memory,[4],Numerical positive treatment effects
same,verbal learning,[4],favoring placebo
same,cognitive tests that primarily assessed attention and working memory function,amnestic MCI,general pattern of improvement
same,"dendritic and axonal growth or branching, density of synaptic structures",[5]; SNAP-25 and synaptophysin staining,significantly increased
same,CREB phosphorylation,[5],increase
same,activity of ERK and Akt,[5]; time-dependent,significantly stimulated
same,cancer cell division,cancer cell division,does not affect
same,microtubule depolymerization by nocodazole,astrocytes or neurons; neurons,reversed
same,tubulin zinc sheet formation and cell death,astrocytes or neurons; treatment with zinc chloride,protected
same,axon outgrowth,"[6]; cerebellar granule neurons, via Fyn kinase and Cas phosphorylation",potentiated axon outgrowth
same,object recognition,STOP+/- mice,significantly improved to STOP+/+ performance level
same,open field locomotor activity,STOP+/- mice,significantly decreased
same,spatial memory,STOP+/- mice,ameliorated
"CC1=C(/C=C/C(C)=C/C=C/C(C)=C/C(=O)O)C(C)(C)CCC1 [RA, all-trans retinoic acid]","glial fibrillar acidic protein (GFAP) expression, Q-PCR",P19 cells,up-regulation
same,"tubulinβ3 expression, Q-PCR",P19 cells,up-regulation
C[C@H]1c2cccc(O)c2C(=O)C2=C(O)[C@]3(O)C(=O)C(C(N)=O)=C(O)[C@@H](N(C)C)[C@@H]3[C@@H](O)[C@@H]21 [doxycycline],ADNP protein expression ratio between the Tg and non-Tg mice,ADNP [7],1
CCO [ethanol],IC50,"[6]; by inhibiting NAP activation of Fyn kinase and Cas, read-out: IC(50), block of NAP-mediated axon outgrowth",17 mM
CC(=O)O[C@H]1C(=O)[C@@]2(C)[C@H]([C@H](OC(=O)c3ccccc3)[C@]3(O)C[C@H](OC(=O)[C@H](O)[C@@H](NC(=O)c4ccccc4)c4ccccc4)C(C)=C1C3(C)C)[C@]1(OC(C)=O)CO[C@@H]1C[C@@H]2O [paclitaxel],NAP-tubulin interaction,β-tubulin,reduced
[Xe] [xenon],ADNP expression in neonatal rat brain,ADNP [8],differentially expressed
B1,protection against severe oxidative stress and Aβ toxicity,cell cultures,potent protection
